Where a name gives a salt, the structure may show the parent alone.
What was measured:
[1] = system: Phytophthora infestans; test: whole plant or invertebrate; type: in vivo; details: in Solanum tuberosum, 120 h, read-out: P. infestans % inhibition
[2] = system: Pseudomonas syringae pv. tomato (Pto) DC3000; test: Bacterial liquid culture growth curves (OD600), Pto DC3000; details: 18.5 h, read-out: Absolute growth rate relative to mock control, Pto DC3000
[3] = system: Rhodococcus sp.; test: Bacterial liquid culture growth curves (OD600), Rhodococcus sp.; details: 18.5 h, read-out: Absolute growth rate relative to mock control, Rhodococcus sp.
[4] = system: P. infestans; test: whole plant or invertebrate; type: in vivo; details: Phytophthora infestans, in Solanum tuberosum, read-out: P. infestans % inhibition

SMILES	inhibition at 100 µM [4] [%]	further results
Oc1ccc(-c2cc(-c3cccc(F)c3)on2)cc1O [Compound 21, 3-(3,4-Dihydroxyphenyl)-5-(3-fluorophenyl)isoxazole]	–	inhibition at 100 µM [1]: 70%; activity at 100 µM [2]: 93%; activity at 100 µM [3]: 2%
Oc1ccc(-c2cc(-c3cccc(C(F)(F)F)c3)[nH]n2)cc1O [Compound 12, 3-(3,4-Dihydroxyphenyl)-5-[3-(trifluoromethyl)phenyl]-1H-pyrazole]	–	inhibition at 100 µM [1]: 76%; activity at 100 µM [2]: 104%; activity at 100 µM [3]: -1%
Fc1cc(F)cc(-c2cc(-c3ccc4c(c3)OCO4)n[nH]2)c1 [Compound 104, 3-(1,3-Benzodioxol-5-yl)-5-(3,5-difluorophenyl)-1H-pyrazole]	–	activity at 100 µM [2]: 101%; activity at 100 µM [3]: 51%
COc1ccc(-c2c[nH]c(-c3ccc(OC)c(OC)c3)n2)cc1OC [Compound 30, 2,4-Bis(3,4-dimethoxyphenyl)-1H-imidazole]	–	inhibition at 100 µM [1]: 46%; activity at 100 µM [2]: 109%; activity at 100 µM [3]: 35%
COc1ccc(-c2cc(-c3ccc(O)cc3)[nH]n2)cc1OC [Compound 32, 3-(3,4-Dimethoxyphenyl)-5-(4-hydroxyphenyl)-1H-pyrazole]	–	inhibition at 100 µM [1]: 77%; activity at 100 µM [2]: 90%; activity at 100 µM [3]: 10%
COc1ccc(-c2cc(-c3cccc(F)c3)on2)cc1OC [Compound 20, 3-(3,4-Dimethoxyphenyl)-5-(3-fluorophenyl)isoxazole]	–	inhibition at 100 µM [1]: 21%
c1ccc(-c2cc(-c3ccc4c(c3)OCO4)no2)cc1 [Compound 17, 3-(1,3-Benzodioxol-5-yl)-5-phenylisoxazole]	–	inhibition at 100 µM [1]: 13%
CNc1ccc(-c2cc(-c3cccc(Br)c3)[nH]n2)cc1 [Compound 42, 5-(3-Bromophenyl)-3-[4-(methylamino)phenyl]-1H-pyrazole]	–	activity at 100 µM [2]: 73%; activity at 100 µM [3]: 72%
CN(C)c1cccc(-c2cc(-c3ccc4c(c3)OCO4)n[nH]2)c1 [Compound 14, 3-[3-(1,3-benzodioxol-5-yl)-1H-pyrazol-5-yl]-N,N-dimethylaniline]	–	inhibition at 100 µM [1]: 71%; activity at 100 µM [2]: 100%; activity at 100 µM [3]: 11%
Oc1ccc(-c2noc(-c3cccc(F)c3)n2)cc1O [Compound 25, 3-(3,4-Dihydroxyphenyl)-5-(3-fluorophenyl)-1,2,4-oxadiazole]	–	inhibition at 100 µM [1]: 79%; activity at 100 µM [2]: 105%; activity at 100 µM [3]: 1%
CC(C)[C@H](N)C(=O)Nc1cccc(-c2cc(-c3cccc(OC(F)(F)F)c3)[nH]n2)c1 [Compound 145, (2S)-2-Amino-N-{3-[5-(3-trifluoromethoxyphenyl)-1H-pyrazol-3-yllphenyl}-3-methylbutanamide hydrochloride]	97	–
COCCOC(=O)Nc1cccc(-c2nc(-c3ccc(OC)cc3)n[nH]2)c1 [Compound 139, 2-Methoxyethyl {3-[3-(4-methoxyphenyl)-1H-1,2,4-triazol-5-yl]phenyl}carbamate]	48	–
N[C@@H](CC(=O)O)C(=O)Nc1ccc(-c2nc(-c3cccc(C(F)(F)F)c3)no2)cc1 [Compound 133, (3S)-3-Amino-4-oxo-4-[(4-{3-[3-(trifluoromethyl)phenyl]-1,2,4-oxadiazol-5-yl}phenyl)amino]butanoic acid hydrochloride]	85	–
CCc1ccc(-c2c[nH]c(-c3cccc(C(=O)O)c3)n2)cc1 [Compound 125, 3-[4-(4-Ethylphenyl)-1H-imidazol-2-yl]benzoic acid]	30	–
Oc1ccc(-c2cc(-c3ccc(O)c(O)c3)[nH]n2)cc1O [Compound 27, 3,5-Bis(3,4-Dihydroxyphenyl)-1H-pyrazole hydrobromide]	–	inhibition at 100 µM [1]: 62%; activity at 100 µM [2]: 77%; activity at 100 µM [3]: 98%
CC(=O)Nc1ccc(-c2cc(-c3ccccc3F)no2)cc1 [Compound 46, N-{4-[3-(2-Fluorophenyl)-isoxazol-5-yl]phenyl}acetamide]	7	–
COc1ccc(-c2n[nH]c(-c3cccc(NC(=O)[C@H](C)N)c3)n2)cc1 [Compound 140, (2S)-2-Amino-N-{3-[3-(4-methoxyphenyl)-1H-1,2,4-triazol-5-yl]phenyl}propenamide hydrochloride]	39	–
CN1CCN(c2cccc(-c3nc(-c4ccc5c(c4)OCCO5)co3)c2)CC1 [Compound 114, 1-Methyl-4-{3-[4-(2,3-dihydro-1,4-benzodioxin-6-yl)-1,3-oxazol-2-yl]phenyl}piperazine]	93	–
CN1CCOc2cc(-c3cc(-c4cccc(Br)c4)[nH]n3)ccc21 [Compound 44, 7-[5-(3-Bromophenyl)-1H-pyrazol-3-yl]-4-methyl-3,4-dihydro-2H-1,4-benzoxazine]	5	–
Cc1ccc(N)cc1-c1nc(-c2ccc(F)cc2)n[nH]1 [Compound 100, 5-(3-Amino-6-methylphenyl)-3-(4-fluorophenyl)-1H-1,2,4-triazole]	51	–
CC1(C)CCc2cc(-c3cc(-c4cccc(Br)c4)[nH]n3)ccc2O1 [Compound 97, 5-(3-Bromophenyl)-3-(2,2-dimethyl-3,4-dihydro-2H-chromen-6-yl)-1H-pyrazole]	10	–

SMILES	inhibition at 100 µM [4] [%]	further results
CCNC(=O)Nc1ccc(C)c(-c2nc(-c3ccc(F)cc3)n[nH]2)c1 [Compound 101, 1-Ethyl-3-{3-[3-(4-fluorophenyl)-1H-1,2,4-triazol-5-yl]-4-methylphenyl}urea]	69	–
Cc1ccc(S(=O)(=O)Nc2ccc(-c3cc(-c4ccccc4F)no3)cc2)cc1 [Compound 47, N-{4-[3-(2-Fluorophenyl)-isoxazol-5-yl]phenyl}-4-methylbenzenesulfonamide]	19	–
COc1ccc(-c2cc(-c3ccc(Cl)cc3)n[nH]2)cc1 [Compound 31, 3-(4-Chlorophenyl)-5-(4-methoxyphenyl)-1H-pyrazole]	–	inhibition at 100 µM [1]: 77%
O=C(O)c1cccc(-c2cc(-c3ccc4c(c3)OCO4)[nH]n2)c1 [Compound 166, 3-[5-(1,3-Benzodioxol-5-yl)-1H-pyrazol-3-yl]benzoic acid]	6	–
Cc1cccc(-c2nc(-c3ccc(Cl)c(Cl)c3)c[nH]2)c1 [Compound 79, 5-(3,4-Dichlorophenyl)-2-(3-methylphenyl)-1H-imidazole]	81	–
O=C(O)c1cccc(-c2noc(-c3ccccc3F)n2)c1 [Compound 62, 3-[5-(2-Fluorophenyl)-1,2,4-oxadiazol-3-yl]benzoic acid]	64	–
Clc1ccccc1-c1cc(-c2ccc(N3CCCCC3)cc2)on1 [Compound 91, 1-{4-[3-(2-Chlorophenyl)-1,2-oxazol-5-yl]phenyl}piperidine]	29	–
Brc1cccc(-c2cc(-c3ccc4c(c3)OCCO4)n[nH]2)c1 [Compound 50, 5-(3-Bromophenyl)-3-(2,3-dihydro-1,4-benzodioxin-6-yl)-1H-pyrazole]	28	–
COc1ccc(-c2nc(-c3ccc(C(F)(F)F)cc3)no2)cc1 [Compound 64, 5-(4-Methoxyphenyl)-3-[4-(trifluoromethyl)phenyl]-1,2,4-oxadiazole]	23	–
Ic1ccc(-c2cc(-c3ccc4c(c3)OCO4)n[nH]2)cc1 [Compound 15, 3-(1,3-Benzodioxol-5-yl)-5-(4-iodophenyl)-1H-pyrazole]	–	inhibition at 100 µM [1]: 56%
CCc1ccc(-c2c[nH]c(-c3ccc(NC(=O)[C@@H]4CCCN4)cc3)n2)cc1 [Compound 153, (2S)-N-{4-[4-(4-Ethylphenyl)-1H-imidazol-2-yl]phenyl}pyrrolidine-2-carboxamide dihydrochloride]	95	–
O=C(Nc1ccc(F)cc1)Nc1ccc(-c2cc(-c3cccc(OC(F)(F)F)c3)n[nH]2)cc1 [Compound 127, 1-(4-Fluorophenyl)-3-(4-{5-[3-(trifluoromethoxy)phenyl]-1H-pyrazol-3-yl}phenyl)urea]	18	–
CCc1ccc(-c2c[nH]c(-c3ccc(NC(C)=O)cc3)n2)cc1 [Compound 155, N-{4-[4-(4-Ethylphenyl)-1H-imidazol-2-yl]phenyl}acetamide]	16	–
CCOC(=O)c1ccc(-c2noc(-c3ccc(SC)cc3)n2)cc1 [Compound 95, Ethyl 4-{5-[4-(methylsulfanyl)phenyl]-1,2,4-oxadiazol-3-yl}benzoate]	9	–
COc1ccc(-c2c[nH]c(-c3ccc(Cl)cc3)n2)cc1 [Compound 113, 2-(4-Chlorophenyl)-5-(4-methoxyphenyl)-1H-imidazole]	90	–
Cc1ccc(-c2n[nH]c(-c3cccc(NC(=O)OC(C)C)c3)n2)cc1 [Compound 157, Propan-2-yl {3-[3-(4-methylphenyl)-1H-1,2,4-triazol-5-yl]phenyl}carbamate]	17	–
COC(=O)Nc1ccc(-c2nc(-c3ccc(OC(F)(F)F)cc3)n[nH]2)cc1 [Compound 77, Methyl (4-{5-[4-(trifluoromethoxy)phenyl]-1H-1,2,4-triazol-3-yl}phenyl)carbamate]	6	–
Clc1ccc(-c2cc(-c3cccc(N4CCOCC4)c3)[nH]n2)cc1 [Compound 3, 4-{3-[3-(4-Chlorophenyl)-1H-pyrazol-5-yl]phenyl}morpholine]	20	–
Oc1ccc(-c2nc(-c3ccc(C(F)(F)F)cc3)no2)cc1 [Compound 72, 5-(4-Hydroxyphenyl]-3-[4-(trifluoromethyl)phenyl]-1,2,4-oxadiazole]	83	–
O=C(Nc1cccc(-c2c[nH]c(-c3ccc(F)cc3)n2)c1)c1ccccc1 [Compound 88, N-{3-[2-(4-fluorophenyl)-1H-imidazol-5-yl]phenyl}benzamide]	28	–
Cc1ccc(-c2n[nH]c(-c3cccc(N4CCCC4)c3)n2)cc1C [Compound 156, 3-(3,4-Dimethylphenyl)-5-[3-(pyrrolidin-1-yl)phenyl]-1H-1,2,4-triazole]	25	–
